Results as given in article PMC11222147, “Host defence peptide plectasin targets bacterial cell wall precursor lipid II by a calcium-sensitive supramolecular mechanism” (Nature Microbiology, 2024).
≈ marks a conversion by molar mass, not a printed value. Where two headings read alike, the source gives them in different places. Where a SMILES comes first, the peptide text is derived from it. Bridges are numbered along the chain shown (N, C = ends). Where no end group is shown, it is not given here.

Tests used:
S. simulans 22 = assay: MIC assays under standard conditions; assay type: cell-based, Staphylococcus simulans; settings: for Minimum inhibitory concentration, S. simulans / MIC: cation-adjusted MHB, 37 °C; for MIC: Staphylococcus simulans, 22
Protocol: (§1) Plectasin and analogues were serially diluted in cation-adjusted Mueller–Hinton broth (MHB) in round-bottom polypropylene 96-well plates (50 µl per well). Selected bacterial strains were grown from glycerol stocks on blood agar plates. Individual colonies were inoculated in TSB and incubated at 37 °C while shaking until OD600 reached 0.5. Bacterial suspensions were then diluted 100 times in cation-adjusted MHB and distributed (50 μl per well) over the microplate containing the diluted plectasin solutions. Plates were covered by a gas-permeable adhesive membrane and incubated at 37 °C while shaking. MICs were determined by visual inspection after 16–20 h (Staphylococcus) or 20–24 h (Streptococcus). For Streptococcus strains, the broth was additionally supplemented with 5% lysed horse blood, and the microplates were incubated under 5% CO2 atmosphere. In the assays, we used the following strains: S. simulans, S. pneumoniae serotype 8, S. pneumoniae ATCC6305 and Streptococcus pyogenes M3.

S. pneumoniae ATCC6305 = assay: MIC assays under standard conditions; assay type: cell-based, Streptococcus pneumoniae; settings: Supplementary Table 1, cation-adjusted MHB + 5% lysed horse blood, 5% CO2, 20–24 h
Protocol: as §1

Compound	Minimum inhibitory concentration, S. simulans (S. simulans 22; Supplementary Table 1, 16–20 h)	Minimum inhibitory concentration, S. pneumoniae ATCC6305 (S. pneumoniae ATCC6305)	also measured
CSCC[C@@H]1NC(=O)[C@H](CC(=O)O)NC(=O)[C@H](CC(=O)O)NC(=O)[C@H](CCC(=O)O)NC(=O)[C@H](CC(=O)O)NC(=O)[C@H](Cc2c[nH]c3ccccc23)NC(=O)[C@@H]2CCCN2C(=O)CNC(=O)[C@H](CC(N)=O)NC(=O)[C@@H](NC(=O)CNC(=O)[C@H](Cc2ccccc2)NC(=O)CN)CSSC[C@@H]2NC(=O)[C@H](Cc3ccc(O)cc3)NC(=O)CNC(=O)CNC(=O)[C@H](CCCCN)NC(=O)[C@H](Cc3ccc(O)cc3)NC(=O)CNC(=O)[C@H](CCCCN)NC(=O)[C@H](CCCCN)NC(=O)[C@H](CO)NC(=O)[C@H](CCCCN)NC(=O)[C@@H]3CSSC[C@@H](C(=O)N[C@@H](Cc4ccc(O)cc4)C(=O)O)NC(=O)[C@H](CCCCN)NC(=O)[C@H](CSSC[C@H](NC(=O)[C@H](CCC(N)=O)NC1=O)C(=O)N[C@@H](Cc1c[nH]cn1)C(=O)N[C@@H](CC(N)=O)C(=O)N[C@@H](Cc1c[nH]cn1)C(=O)N3)NC(=O)[C@H](C(C)C)NC(=O)[C@H](Cc1ccccc1)NC(=O)CNC(=O)CNC(=O)[C@H](CCCCN)NC(=O)[C@H](C)NC2=O [I22K] (H-GFGCNGPWDEDDMQCHNHCKSKKGYKGGYCAKGGFVCKCY-OH; disulfide 4-30, 15-37, 19-39 (inferred); N-terminus and C-terminus assumed)	> 50 µg/mL	> 50 µg/mL	
CC[C@H](C)[C@@H]1NC(=O)[C@H](CO)NC(=O)[C@H](CCCCN)NC(=O)[C@@H]2CSSC[C@@H](C(=O)N[C@@H](Cc3ccc(O)cc3)C(=O)O)NC(=O)[C@H](CCCCN)NC(=O)[C@@H]3CSSC[C@H](NC(=O)[C@H](CCC(N)=O)NC(=O)[C@H](CCSC)NC(=O)[C@H](CC(=O)O)NC(=O)[C@H](CC(=O)O)NC(=O)[C@H](CCC(=O)O)NC(=O)[C@H](CC(=O)O)NC(=O)[C@H](Cc4c[nH]c5ccccc45)NC(=O)[C@@H]4CCCN4C(=O)CNC(=O)[C@H](CC(N)=O)NC(=O)[C@@H](NC(=O)CNC(=O)[C@H](Cc4ccccc4)NC(=O)CN)CSSC[C@H](NC(=O)[C@H](Cc4ccc(O)cc4)NC(=O)CNC(=O)CNC(=O)[C@H](C)NC(=O)[C@H](Cc4ccc(O)cc4)NC(=O)CNC(=O)[C@H](CCCCN)NC1=O)C(=O)N[C@@H](C)C(=O)N[C@@H](CCCCN)C(=O)NCC(=O)NCC(=O)N[C@@H](Cc1ccccc1)C(=O)N[C@@H](C(C)C)C(=O)N3)C(=O)N[C@@H](Cc1c[nH]cn1)C(=O)N[C@@H](CC(N)=O)C(=O)N[C@@H](Cc1c[nH]cn1)C(=O)N2 [K26A] (H-GFGCNGPWDEDDMQCHNHCKSIKGYAGGYCAKGGFVCKCY-OH; disulfide 4-30, 15-37, 19-39 (inferred); N-terminus and C-terminus assumed)	3,13 μg/mL	3,13 μg/mL	reduction in activity vs plectasin (S. simulans 22; from MIC of Table 1): fivefold to tenfold
CC[C@H](C)[C@@H]1NC(=O)[C@H](CO)NC(=O)[C@H](CCCCN)NC(=O)[C@@H]2CSSC[C@@H](C(=O)N[C@@H](Cc3ccc(O)cc3)C(=O)O)NC(=O)[C@H](CCCCN)NC(=O)[C@@H]3CSSC[C@H](NC(=O)[C@H](CCC(N)=O)NC(=O)[C@H](CCSC)NC(=O)[C@H](CC(=O)O)NC(=O)[C@H](CC(=O)O)NC(=O)[C@H](CCC(=O)O)NC(=O)[C@H](CC(=O)O)NC(=O)[C@H](Cc4c[nH]c5ccccc45)NC(=O)[C@@H]4CCCN4C(=O)CNC(=O)[C@H](CC(N)=O)NC(=O)[C@@H](NC(=O)CNC(=O)[C@H](Cc4ccccc4)NC(=O)CN)CSSC[C@H](NC(=O)[C@H](Cc4ccc(O)cc4)NC(=O)CNC(=O)CNC(=O)[C@H](CCCNC(=N)N)NC(=O)[C@H](Cc4ccc(O)cc4)NC(=O)CNC(=O)[C@H](CCCCN)NC1=O)C(=O)N[C@@H](C)C(=O)N[C@@H](CCCCN)C(=O)NCC(=O)NCC(=O)N[C@@H](Cc1ccccc1)C(=O)N[C@@H](C(C)C)C(=O)N3)C(=O)N[C@@H](Cc1c[nH]cn1)C(=O)N[C@@H](CC(N)=O)C(=O)N[C@@H](Cc1c[nH]cn1)C(=O)N2 [K26R] (H-GFGCNGPWDEDDMQCHNHCKSIKGYRGGYCAKGGFVCKCY-OH; disulfide 4-30, 15-37, 19-39 (inferred); N-terminus and C-terminus assumed)	≤ 0.78 µg/mL	1,56 μg/mL	
CN[C@H](CC(C)C)C(=O)N[C@H]1C(=O)N[C@@H](CC(N)=O)C(=O)N[C@H]2C(=O)N[C@H]3C(=O)N[C@H](C(=O)N[C@H](C(=O)O)c4cc(O)cc(O)c4-c4cc3ccc4O)[C@H](O)c3ccc(c(Cl)c3)Oc3cc2cc(c3O[C@@H]2O[C@H](CO)[C@@H](O)[C@H](O)[C@H]2O[C@H]2C[C@](C)(N)[C@H](O)[C@H](C)O2)Oc2ccc(cc2Cl)[C@H]1O [Vancomycin, reference compound]			MIC (S. simulans 22; Supplementary Table 1, 16–20 h, read-out: Minimum inhibitory concentration, S. simulans): 0.78 µg/mL (≈ 0.538 µM); MIC (S. simulans 22; standard conditions, visual inspection after 16–20 h, read-out: MIC): 0.78 µg/mL (≈ 0.538 µM); MIC (S. pneumoniae ATCC6305; Streptococcus pneumoniae, ATCC6305, read-out: Minimum inhibitory concentration, S. pneumoniae ATCC6305): < 0.78 µg/mL
CC[C@H](C)[C@@H]1NC(=O)[C@H](CO)NC(=O)[C@H](CCCCN)NC(=O)[C@@H]2CSSC[C@@H](C(=O)N[C@@H](Cc3ccc(O)cc3)C(=O)O)NC(=O)[C@H](CCCCN)NC(=O)[C@@H]3CSSC[C@H](NC(=O)[C@H](CCC(N)=O)NC(=O)[C@H](CCSC)NC(=O)[C@H](CC(=O)O)NC(=O)[C@H](CC(=O)O)NC(=O)[C@H](CCC(=O)O)NC(=O)[C@H](CC(=O)O)NC(=O)[C@H](Cc4c[nH]c5ccccc45)NC(=O)[C@@H]4CCCN4C(=O)CNC(=O)[C@H](CC(N)=O)NC(=O)[C@@H](NC(=O)CNC(=O)[C@H](Cc4ccccc4)NC(=O)CN)CSSC[C@H](NC(=O)[C@H](Cc4ccc(O)cc4)NC(=O)CNC(=O)CNC(=O)[C@H](CCCCN)NC(=O)[C@H](Cc4ccccc4)NC(=O)CNC(=O)[C@H](CCCCN)NC1=O)C(=O)N[C@@H](C)C(=O)N[C@@H](CCCCN)C(=O)NCC(=O)NCC(=O)N[C@@H](Cc1ccccc1)C(=O)N[C@@H](C(C)C)C(=O)N3)C(=O)N[C@@H](Cc1c[nH]cn1)C(=O)N[C@@H](CC(N)=O)C(=O)N[C@@H](Cc1c[nH]cn1)C(=O)N2 [Y25F] (H-GFGCNGPWDEDDMQCHNHCKSIKGFKGGYCAKGGFVCKCY-OH; disulfide 4-30, 15-37, 19-39 (inferred); N-terminus and C-terminus assumed)	1,56 μg/mL	3,125 μg/mL	
CC[C@H](C)[C@@H]1NC(=O)[C@H](CO)NC(=O)[C@H](CCCCN)NC(=O)[C@@H]2CSSC[C@@H](C(=O)N[C@@H](Cc3ccc(O)cc3)C(=O)O)NC(=O)[C@H](CCCCN)NC(=O)[C@@H]3CSSC[C@H](NC(=O)[C@H](CCC(N)=O)NC(=O)[C@H](CCSC)NC(=O)[C@H](CC(=O)O)NC(=O)[C@H](CC(=O)O)NC(=O)[C@H](CCC(=O)O)NC(=O)[C@H](CC(=O)O)NC(=O)[C@H](Cc4c[nH]c5ccccc45)NC(=O)[C@@H]4CCCN4C(=O)CNC(=O)[C@H](CC(N)=O)NC(=O)[C@@H](NC(=O)CNC(=O)[C@H](Cc4ccccc4)NC(=O)CN)CSSC[C@H](NC(=O)[C@H](Cc4ccc(O)cc4)NC(=O)CNC(=O)CNC(=O)[C@H](CCCCN)NC(=O)[C@H](CC(C)C)NC(=O)CNC(=O)[C@H](CCCCN)NC1=O)C(=O)N[C@@H](C)C(=O)N[C@@H](CCCCN)C(=O)NCC(=O)NCC(=O)N[C@@H](Cc1ccccc1)C(=O)N[C@@H](C(C)C)C(=O)N3)C(=O)N[C@@H](Cc1c[nH]cn1)C(=O)N[C@@H](CC(N)=O)C(=O)N[C@@H](Cc1c[nH]cn1)C(=O)N2 [Y25L] (H-GFGCNGPWDEDDMQCHNHCKSIKGLKGGYCAKGGFVCKCY-OH; disulfide 4-30, 15-37, 19-39 (inferred); N-terminus and C-terminus assumed)	3,13 μg/mL		
CC[C@H](C)[C@@H]1NC(=O)[C@H](CO)NC(=O)[C@H](CCCCN)NC(=O)[C@@H]2CSSC[C@@H](C(=O)N[C@@H](Cc3ccc(O)cc3)C(=O)O)NC(=O)[C@H](CCCCN)NC(=O)[C@@H]3CSSC[C@H](NC(=O)[C@H](CCC(N)=O)NC(=O)[C@H](CCSC)NC(=O)[C@H](CC(=O)O)NC(=O)[C@H](CC(=O)O)NC(=O)[C@H](CCC(=O)O)NC(=O)[C@H](CC(=O)O)NC(=O)[C@H](Cc4c[nH]c5ccccc45)NC(=O)[C@@H]4CCCN4C(=O)CNC(=O)[C@H](CC(N)=O)NC(=O)[C@@H](NC(=O)CNC(=O)[C@H](Cc4ccccc4)NC(=O)CN)CSSC[C@H](NC(=O)[C@H](Cc4ccc(O)cc4)NC(=O)CNC(=O)CNC(=O)[C@H](CCCCN)NC(=O)[C@H](C(C)C)NC(=O)CNC(=O)[C@H](CCCCN)NC1=O)C(=O)N[C@@H](C)C(=O)N[C@@H](CCCCN)C(=O)NCC(=O)NCC(=O)N[C@@H](Cc1ccccc1)C(=O)N[C@@H](C(C)C)C(=O)N3)C(=O)N[C@@H](Cc1c[nH]cn1)C(=O)N[C@@H](CC(N)=O)C(=O)N[C@@H](Cc1c[nH]cn1)C(=O)N2 [Y25V] (H-GFGCNGPWDEDDMQCHNHCKSIKGVKGGYCAKGGFVCKCY-OH; disulfide 4-30, 15-37, 19-39 (inferred); N-terminus and C-terminus assumed)	6,25 μg/mL		
nisin (ITSISLCTPGCKTGALMGCNMKTATCHCSIHVSK; not fully specified (some residues, bridges); also: lantibiotic nisin-A (thioether rings, dehydro residues) not placed; UniProt P13068 24-57, looked up) [reference compound]			MIC towards S. simulans as quoted in Extended Data Fig. 8 (S. simulans 22; legend of the permeabilization assays): 0.075 µM
